The text below walks through data of PubChem BioAssay AID464 (The Scripps Research Institute Molecular Screening Center, 2006).

Activity calls are given as the source filed them.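 How the source made its calls: active means Compounds that kill half the cells at a concentration of 5 micromolar or below, from the fitted or estimated CC50; inactive means CC50 above 5 micromolar.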

For this experiment, the system named is Jurkat E6.1 viability, ATP luminescence, 48 h. Kind of experiment: viability loss in Jurkat T cells – cell-based, ATP luminescence, 48 h, 60K MLSMR, cytotoxicity control, dose response (AID 464).
As for `O=C(Nc1ccc(Cl)cn1)c1cccc(F)c1`, the CC50 (commonly the concentration giving 50% cytotoxicity) was > 4.4 µM (inactive). Take `COc1ccc(S(=O)(=O)Nc2cc(Cl)ccc2OC)cc1`: the CC50 was 1.01 µM.

`CCCCOc1ncnc2c1[nH]c1ccccc12`: the CC50 was 5.71 µM (inactive). In the case of `COc1cc(C(=O)N2CCN(c3ncnc4sc(C)c(C)c34)CC2)cc(OC)c1OC`, the CC50 was 2.36 µM. Consider `Cc1cccc(Cn2c(=O)n(CCCC(=O)NCc3ccco3)c(=O)c3ccccc32)c1`, for which the CC50 was 5.14 µM (inactive). As for `Oc1ccc(COCc2ccccc2)c2cccnc12`, the figure is 3.06 µM; as for `Cc1c(C(=O)OCC2CCCO2)[nH]c2c1C(=O)CC(c1ccco1)C2` (stereo not given), 2.6 µM. `CCN=c1scc(-c2ccc3c(c2)NC(=O)CO3)n1N=C1CCCC1`: the CC50 is 8.47 µM (inactive). As for `CCn1ncc(C2=NOC(C(=O)NCc3ccc(OC)cc3)C2)c1C` (stereo not given), the CC50 is 11.8 µM (inactive).

In the case of `COc1cc(C2Nc3ccc4ncccc4c3C3=C2C(=O)CCC3)cc(OC)c1O` (stereo not given), the CC50 is 6.15 µM (inactive).

For the molecule `O=C1C2C3C=CC(CO)(O3)C2C(=O)N1c1ccccc1-c1ccccc1` (stereo not given), the CC50 is 6.29 µM (inactive).

With `Cn1c(CN2CCOCC2)nc2cc(NC(=O)c3ccc(Cl)cc3)ccc21`, the CC50 was 1.26 µM. Consider `CCOc1ccc2nc(-c3ccccc3)[nH]c2c1`, for which the CC50 is 3.01 µM. On to `CCOc1ccc(Nc2cc(C)nc(-n3nc(C)cc3C)n2)cc1`, for which the half-maximal cytotoxic concentration (CC50) was 0.191 µM. As for `CCN(CC)c1ccc(NC(=O)c2ccccc2F)cc1`, the CC50 was > 4.4 µM (inactive).

As for `CCOc1ccccc1NC(=O)c1cccc(NC(=O)c2ccco2)c1`, the CC50 was 1.27 µM.

Take `CCCCn1c(CN2CCN(c3cccc(Cl)c3)CC2)nc2c1c(=O)[nH]c(=O)n2C`: the CC50 is 2.84 µM.

`Oc1ccccc1-c1nnc(SCCN2CCOCC2)n1Cc1ccccc1`: the half-maximal cytotoxic concentration (CC50) was 1.7 µM.

Consider `COc1ccccc1-n1cnc2cc(NCc3ccco3)ccc21`, for which the CC50 is 0.313 µM.

With `CCC(C)c1ccc(NC(=O)C2CCCN(c3ncccn3)C2)cc1` (stereo not given), the CC50 was 10.4 µM (inactive). Turning to `CCOC(=O)c1[nH]c(C)c(C(=O)Nc2cccc(Cl)c2C)c1C`, the CC50 is 3.8 µM. As for `COC(=O)c1[nH]c2c(c1C)C(=O)CC(c1cccs1)C2` (stereo not given), the figure is 0.677 µM; as for `O=C(CSc1ncnc2sc3c(c12)CCCCC3)NCc1ccco1`, 9.83 µM (inactive). With `CCN(CC)S(=O)(=O)c1cccc(C(=O)Nc2ccccc2)c1`, the CC50 is 18.3 µM (inactive).

Regarding `COc1ccccc1-c1nnc2sc(-c3ccc(N(C)C)cc3)nn12`, the CC50 is 0.0343 µM.

In the case of `O=C(N1CCN(c2ccccn2)CC1)N1c2ccccc2Sc2ccccc21`, the CC50 is 0.669 µM. `COc1ccc(C(=O)c2ccc(N(C)C)cc2)c(OC)c1`: the CC50 was 1.5 µM. As to `CCOc1ccccc1NC(=O)Cn1nnc(C(=O)NCc2ccco2)c1N`, the CC50 is 0.078 µM. As for `Cc1cc2c(cc(C(=O)OCC(=O)NCc3cccs3)n2C(C)C)o1`, the figure is 0.837 µM. With `CCOc1ccc2nc(N3CCC(C(=O)N4CCN(c5ccccn5)CC4)CC3)sc2c1` the figure was 23.7 µM (inactive); with `Cn1c(SC2=CS(=O)(=O)c3ccccc32)nc2ccccc21`, 2.66 µM; with `CCOc1ccc2nc(NC(=O)c3ccoc3C)sc2c1`, 12.6 µM (inactive). In the case of `CC(C)Oc1ccccc1C1CC(=O)Nc2cc3c(cc21)OCCO3` (stereo not given), the CC50 was 0.576 µM. Regarding `CSC1=C(C#N)C(c2ccc(Cl)cc2)C2=C(CC(C)(C)CC2=O)N1` (stereo not given), the CC50 was 14.7 µM (inactive). Turning to `Cc1ccc(-c2nc(-c3ccccn3)no2)cc1`, the CC50 was 10.3 µM (inactive). With `Cc1nn(-c2nc3ccccc3s2)c(C)c1Oc1ccccc1O` the figure was > 40 µM (inactive); with `Cc1cc2nnc(SCC(=O)NCc3ccco3)n2c2ccccc12`, 1.9 µM. As for `CCc1ccc(CNc2ccc(O)cc2)cc1`, the figure is > 40 µM (inactive); as for `O=c1cc(-c2ccccc2)[nH]c2nc3ccccc3n12`, 9.38 µM (inactive); as for `CCN(CC)c1ccc(NC(=O)c2cc(OC)cc(OC)c2)c(C)c1`, 1.11 µM. Take `CCOC(=O)C1(Nc2nccs2)Sc2ccccc2NC1=O` (stereo not given): the CC50 is 3.66 µM. For `COc1ccc(C(O)c2nc3ccccc3n2C)cc1OC` (stereo not given), the CC50 was 5.83 µM (inactive). On to `Cc1oc(-c2ccc(Cl)cc2)nc1CN1CCCC(C(=O)N2CCN(C(=O)c3ccco3)CC2)C1` (stereo not given), for which the 50% cytotoxic concentration (CC50) was 2.07 µM. For the molecule `O=C(Nc1ccncc1)C1CCCN(S(=O)(=O)c2cccc3cccnc23)C1` (stereo not given), the 50% cytotoxic concentration (CC50) is 1.42 µM. On to `CCCCCCn1c(NCC)nc2c1c(=O)n(C)c(=O)n2C`, for which the CC50 is 2.83 µM. In the case of `COc1cc(NS(=O)(=O)c2ccc(C)cc2C)cc(OC)c1OC`, the CC50 was 9.46 µM (inactive). For `CC(=O)c1cc2c(cc1NS(=O)(=O)c1ccc(C)cc1)OCCO2`, the CC50 was 5.05 µM (inactive). As for `COCCOC(=O)c1[nH]c2c(c1C)C(=O)CC(c1ccc(F)cc1)C2` (stereo not given), the figure is 5.37 µM (inactive); as for `CN(C)c1ccc2c(c1)OC(N)=C(C#N)C2c1cccc(F)c1` (stereo not given), 0.106 µM; as for `Cc1nn(-c2ccccc2)c(C)c1C(=O)Nc1nnc(-c2ccco2)o1`, > 40 µM (inactive). As for `Cc1cc(C(=O)OCC(=O)NCc2ccco2)c(C)n1-c1ccccc1`, the figure is 2.68 µM. Regarding `O=C(Cn1cnc2c(cnn2-c2ccccc2)c1=O)NCc1ccccc1`, the CC50 is 9.12 µM (inactive).

On to `O=c1c2cc3ccccc3n2cnn1Cc1ccccc1F`, for which the CC50 is 16.4 µM (inactive). In the case of `CCCCOc1ccccc1NC(=O)Cn1c(-c2nonc2N)nc2ccccc21`, the CC50 is 0.733 µM. With `O=C(CCCCn1c(=O)c2ccccc2n(Cc2ccc(F)cc2)c1=O)NCc1ccco1`, the CC50 was 9.14 µM (inactive). As for `CCN(Cc1ccccc1)S(=O)(=O)c1ccc(C(=O)Nc2nnc(C3CC3)o2)cc1`, the CC50 is 32.5 µM (inactive). In the case of `Cc1ccsc1C(=O)Nc1nnc(-c2ccco2)o1`, the CC50 is 24.2 µM (inactive).

Consider `CN(CC1CCCO1)S(=O)(=O)c1ccc(C(=O)Nc2nc(-c3ccccn3)cs2)cc1` (stereo not given), for which the CC50 is 10.5 µM (inactive). As for `COc1cccc2sc(Nc3nnc(-c4cccs4)o3)nc12`, the figure is 10.6 µM (inactive). Take `COc1cc(C2=NOC(C(=O)NCc3ccc(F)cc3)C2)cc(OC)c1OC` (stereo not given): the half-maximal cytotoxic concentration (CC50) was 0.347 µM.

Regarding `COc1cccc(N2C(N)=NC(N)=NC2(C)C)c1`, the CC50 was 2.58 µM. On to `Cc1ccsc1C=Nc1ccc(O)cc1`, for which the CC50 was 39.3 µM (inactive). Consider `Cc1cccc(N2CCN(C(=O)c3ccncc3)CC2)c1C`, for which the CC50 is 2.78 µM. On to `COc1ccc(CCNCc2csc3nc4ccccc4n23)cc1OC`, for which the CC50 is 8.02 µM (inactive). As to `CCCOC(=O)c1[nH]c2c(c1C)C(=O)CC(c1cc(OC)c(OC)c(OC)c1)C2` (stereo not given), the CC50 is 23.8 µM (inactive). For the molecule `Cc1nc(NC(C)c2ccccc2)c2oc3ccccc3c2n1` (stereo not given), the CC50 was 18.6 µM (inactive). Regarding `O=C(Cn1cnc2sc(-c3ccccc3)cc2c1=O)NCc1ccco1`, the CC50 is 6 µM (inactive). As for `Brc1ccc(C2=Nn3c(nnc3-c3n[nH]c4c3CCC4)SC2)cc1`, the CC50 was 0.313 µM. With `CC(C)Cc1cc(C(=O)Nc2cc(Br)ccc2O)no1`, the CC50 was > 40 µM (inactive). Regarding `CCn1ncc(C2=NOC(C(=O)NCc3ccccc3)C2)c1C` (stereo not given), the cytotoxic concentration (CC50) is 1.09 µM.
